From paper PMC11571108, “Targeting PfCLK3 with Covalent Inhibitors: A Novel Strategy for Malaria Treatment” (Journal of Medicinal Chemistry, 2024)

Key:
[1] = biological target: CK1γ1(h) (Homo sapiens, UniProt Q9HCP0); assay: biochemical
[2] = biological target: CaMKI(h) (Homo sapiens, UniProt Q14012); assay: biochemical
[3] = biological target: CHK1(h) (Homo sapiens, UniProt O14757); assay: biochemical
[4] = biological target: CDK6/cyclinD3(h) (Homo sapiens, UniProt Q00534); assay: biochemical
[5] = biological target: CDK9/cyclin T1(h) (Homo sapiens, UniProt P50750); assay: biochemical
[6] = biological target: T1, PI3 Kinase (p110a/p85a)(h) (Homo sapiens, UniProt P42336); assay: KinaseProfiler radiometric assay; assay type: biochemical; conditions: 1 µM compound
T1 construct: purchased Eurofins Discovery KinaseProfiler
From the text: (§1) A representative protocol for Abl is given below.

[7] = biological target: T2, PI3 Kinase (p110d/p85a)(h) (Homo sapiens, UniProt O00329); assay: KinaseProfiler radiometric assay; assay type: biochemical; conditions: 1 µM compound
T2 construct: purchased Eurofins Discovery KinaseProfiler
From the text: as §1

[8] = biological target: T3, PI3 Kinase (p110b/p85a)(h) (Homo sapiens, UniProt P42338); assay: KinaseProfiler radiometric assay; assay type: biochemical; conditions: 1 µM compound
T3 construct: purchased Eurofins Discovery KinaseProfiler
From the text: as §1

[9] = physchem; conditions: pH 7.5, GSH t1/2, 37 °C, 10:1 ratio GSH:compound
[10] = biological target: ALK(h) (Homo sapiens, UniProt Q9UM73); assay: biochemical
[11] = biological target: ASK1(h) (Homo sapiens, UniProt Q99683); assay: biochemical
[12] = Microsomal stability; assay type: in vitro ADME; conditions: human, liver microsomes, 0.5 mg/mL microsomes, 37 °C
Experimental: Peak areas were determined from extracted ion chromatograms.

[13] = biological target: AMPKα1(h) (Homo sapiens, UniProt Q13131); assay: biochemical
[14] = biological target: Abl(h) (Homo sapiens, UniProt P00519); assay: biochemical
[15] = biological target: Aurora-A(h) (Homo sapiens, UniProt O14965); assay: biochemical
[16] = biological target: T4, recombinant full-length PfCLK3 (Plasmodium falciparum, UniProt Q8IIL5); assay: TR-FRET protein kinase assay; assay type: biochemical; conditions: Apparent pIC50 (PfCLK3), 15 min preincubation, 2 h incubation
T4 sequence (Q8IIL5 1-699): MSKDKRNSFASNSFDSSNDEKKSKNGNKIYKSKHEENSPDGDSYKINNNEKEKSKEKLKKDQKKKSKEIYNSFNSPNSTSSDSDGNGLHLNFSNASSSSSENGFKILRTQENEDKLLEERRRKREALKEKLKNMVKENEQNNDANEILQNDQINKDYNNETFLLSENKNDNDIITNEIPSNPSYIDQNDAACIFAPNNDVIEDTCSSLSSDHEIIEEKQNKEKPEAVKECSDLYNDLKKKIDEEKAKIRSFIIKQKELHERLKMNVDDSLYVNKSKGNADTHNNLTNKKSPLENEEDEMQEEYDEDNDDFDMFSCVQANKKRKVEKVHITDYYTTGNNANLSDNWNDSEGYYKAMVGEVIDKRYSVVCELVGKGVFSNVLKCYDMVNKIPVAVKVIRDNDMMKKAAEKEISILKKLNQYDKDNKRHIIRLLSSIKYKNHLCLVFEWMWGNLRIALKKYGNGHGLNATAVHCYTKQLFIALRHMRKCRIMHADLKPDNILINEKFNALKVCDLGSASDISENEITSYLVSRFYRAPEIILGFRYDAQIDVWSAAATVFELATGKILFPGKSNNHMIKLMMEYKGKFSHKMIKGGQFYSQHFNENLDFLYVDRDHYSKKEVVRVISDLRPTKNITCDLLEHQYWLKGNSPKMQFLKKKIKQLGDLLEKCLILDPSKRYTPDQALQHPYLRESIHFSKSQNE
Experimental: To a black 384-well plate was added 2.5 μL of each concentration of inhibitor serially diluted 1 in 3, 11 times from a 40 μM (4×) top concentration normalized to 4% DMSO, and 5 μL of 50 nM (2×) recombinant PfCLK3. Both were dissolved in kinase buffer (50 mM HEPES 7.4, 1 mM EGTA, 1 mM MgCl2, 0.01% Tween, and 1 mM TCEP). […] 5 μL of detection mix (30 mM EDTA, 3 nM AntiMBP in 1× PerkinElmer Lance detection buffer) was added to quench the kinase reaction, and plates were incubated at room temperature in the dark for 1 h.

[17] = biological target: c-RAF(h) (Homo sapiens, UniProt P04049); assay: biochemical
[18] = biological target: CDK1/cyclinB(h) (Homo sapiens, UniProt P06493); assay: biochemical
[19] = biological target: CDK2/cyclinA(h) (Homo sapiens, UniProt P24941); assay: biochemical
[20] = biological target: PKCα(h) (Homo sapiens, UniProt P17252); assay: biochemical
Experimental: (§2) Compounds were evaluated using Eurofins Discovery’s KinaseProfiler Diversity Panel of 58 representative kinases. KinaseProfiler is a radiometric assay using [γ-^33P]-ATP to measure the phosphorylation of individual kinase substrates. A representative protocol for Abl is given below. Further details can be found by visiting the Eurofins Discovery Web site.
(§3) The reaction is initiated by the addition of the Mg/ATP mix. After incubation for 40 min at room temperature, the reaction is stopped by the addition of phosphoric acid to a concentration of 0.5%.

[21] = biological target: EphB4(h) (Homo sapiens, UniProt P54760); assay: biochemical
Experimental: as §2, §3

[22] = biological target: IKKα(h) (Homo sapiens, UniProt O15111); assay: biochemical
Experimental: as §2, §3

[23] = biological target: PDGFRβ(h) (Homo sapiens, UniProt P09619); assay: biochemical
Experimental: as §2, §3

[24] = biological target: PKG1α(h) (Homo sapiens, UniProt Q13976); assay: biochemical
Experimental: as §2, §3

[25] = biological target: KDR(h) (Homo sapiens, UniProt P35968); assay: biochemical
Experimental: as §2, §3

Chain of KDR(h) (P35968 20-1356): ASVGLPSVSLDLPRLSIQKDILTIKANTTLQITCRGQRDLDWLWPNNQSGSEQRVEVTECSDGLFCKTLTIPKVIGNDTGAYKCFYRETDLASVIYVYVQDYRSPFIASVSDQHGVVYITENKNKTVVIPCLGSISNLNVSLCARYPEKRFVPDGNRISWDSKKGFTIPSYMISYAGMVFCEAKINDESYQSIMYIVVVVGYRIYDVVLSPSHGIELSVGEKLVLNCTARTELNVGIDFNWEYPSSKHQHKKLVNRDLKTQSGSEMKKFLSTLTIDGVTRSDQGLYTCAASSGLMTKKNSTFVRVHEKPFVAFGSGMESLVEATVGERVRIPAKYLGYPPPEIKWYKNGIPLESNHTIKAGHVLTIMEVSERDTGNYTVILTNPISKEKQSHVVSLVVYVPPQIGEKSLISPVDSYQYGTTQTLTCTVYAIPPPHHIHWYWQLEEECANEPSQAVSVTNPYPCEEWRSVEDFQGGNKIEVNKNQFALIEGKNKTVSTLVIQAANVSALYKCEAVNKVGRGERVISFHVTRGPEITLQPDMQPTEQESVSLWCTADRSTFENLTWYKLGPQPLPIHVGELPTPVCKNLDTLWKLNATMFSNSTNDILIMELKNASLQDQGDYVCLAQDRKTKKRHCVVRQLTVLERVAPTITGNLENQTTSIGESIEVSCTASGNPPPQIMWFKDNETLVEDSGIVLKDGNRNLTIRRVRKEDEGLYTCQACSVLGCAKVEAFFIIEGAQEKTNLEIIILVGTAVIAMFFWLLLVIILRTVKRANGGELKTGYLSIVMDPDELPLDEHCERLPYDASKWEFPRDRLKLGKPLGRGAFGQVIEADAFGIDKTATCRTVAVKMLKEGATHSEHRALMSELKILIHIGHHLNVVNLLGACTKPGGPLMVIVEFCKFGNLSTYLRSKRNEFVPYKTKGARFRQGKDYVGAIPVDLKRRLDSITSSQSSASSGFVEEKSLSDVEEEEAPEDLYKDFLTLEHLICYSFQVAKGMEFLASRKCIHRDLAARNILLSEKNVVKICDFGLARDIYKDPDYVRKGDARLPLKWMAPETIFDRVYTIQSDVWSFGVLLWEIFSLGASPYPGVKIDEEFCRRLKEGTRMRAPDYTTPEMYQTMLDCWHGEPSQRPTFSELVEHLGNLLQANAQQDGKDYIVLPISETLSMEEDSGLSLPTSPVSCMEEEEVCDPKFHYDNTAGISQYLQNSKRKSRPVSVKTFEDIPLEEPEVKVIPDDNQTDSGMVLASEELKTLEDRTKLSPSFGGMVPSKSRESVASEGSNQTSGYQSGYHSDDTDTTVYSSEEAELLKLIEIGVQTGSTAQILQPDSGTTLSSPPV
Chain of CDK9/cyclin T1(h) (P50750 whole entry): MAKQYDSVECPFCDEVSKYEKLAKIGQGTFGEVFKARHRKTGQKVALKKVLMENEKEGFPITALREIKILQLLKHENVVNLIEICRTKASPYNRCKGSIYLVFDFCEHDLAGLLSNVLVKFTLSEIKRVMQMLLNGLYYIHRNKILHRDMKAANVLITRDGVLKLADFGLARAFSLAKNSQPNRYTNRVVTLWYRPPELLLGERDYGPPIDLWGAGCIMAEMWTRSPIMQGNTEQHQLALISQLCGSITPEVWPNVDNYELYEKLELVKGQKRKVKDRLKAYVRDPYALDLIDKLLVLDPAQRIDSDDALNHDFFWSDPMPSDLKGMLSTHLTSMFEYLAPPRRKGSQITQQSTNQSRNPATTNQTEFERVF
Chain of CDK9/cyclin T1(h) (O60563 whole entry partner): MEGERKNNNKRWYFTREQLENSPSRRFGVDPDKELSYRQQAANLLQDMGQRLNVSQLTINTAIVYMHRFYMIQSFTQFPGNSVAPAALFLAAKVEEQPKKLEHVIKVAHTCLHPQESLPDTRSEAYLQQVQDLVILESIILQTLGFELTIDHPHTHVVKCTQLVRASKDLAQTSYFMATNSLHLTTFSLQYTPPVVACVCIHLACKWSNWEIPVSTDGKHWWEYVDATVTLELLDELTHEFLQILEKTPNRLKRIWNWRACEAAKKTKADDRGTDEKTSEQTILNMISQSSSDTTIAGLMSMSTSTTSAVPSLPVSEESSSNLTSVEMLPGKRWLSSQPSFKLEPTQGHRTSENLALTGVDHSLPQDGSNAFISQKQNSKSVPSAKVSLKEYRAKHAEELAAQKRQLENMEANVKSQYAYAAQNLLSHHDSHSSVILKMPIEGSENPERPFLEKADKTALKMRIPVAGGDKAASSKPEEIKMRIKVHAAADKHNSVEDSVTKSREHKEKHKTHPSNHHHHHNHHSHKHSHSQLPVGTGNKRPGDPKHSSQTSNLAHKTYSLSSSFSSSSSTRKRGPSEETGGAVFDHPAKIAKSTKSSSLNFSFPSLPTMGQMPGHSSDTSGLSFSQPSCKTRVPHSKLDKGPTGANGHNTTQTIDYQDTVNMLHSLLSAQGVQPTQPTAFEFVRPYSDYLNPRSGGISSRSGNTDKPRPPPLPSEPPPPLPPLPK
Chain of CaMKI(h) (Q14012 whole entry): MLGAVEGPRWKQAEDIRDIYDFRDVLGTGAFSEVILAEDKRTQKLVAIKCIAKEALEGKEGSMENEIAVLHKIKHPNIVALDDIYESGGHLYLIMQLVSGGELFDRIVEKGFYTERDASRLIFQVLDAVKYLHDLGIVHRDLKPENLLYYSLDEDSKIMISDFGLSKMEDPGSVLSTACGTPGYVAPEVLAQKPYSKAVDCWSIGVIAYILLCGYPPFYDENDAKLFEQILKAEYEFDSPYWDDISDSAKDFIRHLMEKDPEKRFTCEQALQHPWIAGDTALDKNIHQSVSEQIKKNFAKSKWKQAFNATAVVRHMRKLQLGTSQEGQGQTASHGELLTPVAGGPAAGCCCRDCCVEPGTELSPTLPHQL
Chain of PDGFRβ(h) (P09619 33-1106): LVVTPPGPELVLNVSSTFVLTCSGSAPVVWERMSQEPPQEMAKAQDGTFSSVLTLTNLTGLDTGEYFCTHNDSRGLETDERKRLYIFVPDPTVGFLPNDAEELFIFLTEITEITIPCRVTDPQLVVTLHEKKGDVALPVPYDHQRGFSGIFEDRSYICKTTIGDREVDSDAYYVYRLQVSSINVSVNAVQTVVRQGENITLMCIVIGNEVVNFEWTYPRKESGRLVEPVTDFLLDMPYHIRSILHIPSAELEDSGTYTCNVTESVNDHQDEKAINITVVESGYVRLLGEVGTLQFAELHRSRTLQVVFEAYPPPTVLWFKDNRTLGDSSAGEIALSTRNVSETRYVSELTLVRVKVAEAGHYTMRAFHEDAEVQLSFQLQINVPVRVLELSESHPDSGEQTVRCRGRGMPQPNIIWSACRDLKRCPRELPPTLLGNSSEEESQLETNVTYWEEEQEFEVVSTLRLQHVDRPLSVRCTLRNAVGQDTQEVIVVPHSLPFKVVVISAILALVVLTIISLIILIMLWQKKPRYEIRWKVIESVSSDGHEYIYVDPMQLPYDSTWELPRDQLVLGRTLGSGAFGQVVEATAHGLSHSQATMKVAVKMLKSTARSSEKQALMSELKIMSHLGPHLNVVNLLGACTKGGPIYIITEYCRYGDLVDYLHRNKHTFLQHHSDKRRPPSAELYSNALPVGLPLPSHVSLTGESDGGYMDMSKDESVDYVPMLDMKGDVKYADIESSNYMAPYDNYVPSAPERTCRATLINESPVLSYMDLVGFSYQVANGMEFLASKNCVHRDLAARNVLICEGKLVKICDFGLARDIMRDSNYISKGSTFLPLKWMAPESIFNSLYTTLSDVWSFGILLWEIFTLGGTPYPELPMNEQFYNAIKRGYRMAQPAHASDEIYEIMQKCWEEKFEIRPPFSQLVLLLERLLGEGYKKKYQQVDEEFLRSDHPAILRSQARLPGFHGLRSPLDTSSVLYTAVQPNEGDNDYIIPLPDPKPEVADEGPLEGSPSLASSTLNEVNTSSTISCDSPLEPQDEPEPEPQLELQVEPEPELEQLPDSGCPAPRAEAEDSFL
Chain of IKKα(h) (O15111 whole entry): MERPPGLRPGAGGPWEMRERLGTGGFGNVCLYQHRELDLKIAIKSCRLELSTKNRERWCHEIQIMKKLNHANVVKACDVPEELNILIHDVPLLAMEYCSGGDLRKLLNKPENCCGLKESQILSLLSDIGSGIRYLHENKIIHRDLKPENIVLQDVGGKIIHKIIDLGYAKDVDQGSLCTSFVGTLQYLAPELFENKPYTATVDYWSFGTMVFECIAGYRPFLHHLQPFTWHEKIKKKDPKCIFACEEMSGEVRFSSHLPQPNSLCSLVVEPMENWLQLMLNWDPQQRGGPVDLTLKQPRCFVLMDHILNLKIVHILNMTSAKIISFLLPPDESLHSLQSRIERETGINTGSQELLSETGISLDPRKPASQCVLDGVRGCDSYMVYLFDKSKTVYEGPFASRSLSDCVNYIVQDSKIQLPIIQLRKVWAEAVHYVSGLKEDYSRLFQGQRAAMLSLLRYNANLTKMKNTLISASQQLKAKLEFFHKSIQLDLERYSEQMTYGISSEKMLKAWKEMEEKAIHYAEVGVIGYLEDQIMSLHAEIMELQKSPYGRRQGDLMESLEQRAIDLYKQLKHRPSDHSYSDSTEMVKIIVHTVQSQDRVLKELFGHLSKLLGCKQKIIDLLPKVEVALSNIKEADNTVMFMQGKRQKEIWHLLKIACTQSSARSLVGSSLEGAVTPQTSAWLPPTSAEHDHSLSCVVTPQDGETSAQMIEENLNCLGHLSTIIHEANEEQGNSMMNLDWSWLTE
Chain of Aurora-A(h) (O14965 whole entry): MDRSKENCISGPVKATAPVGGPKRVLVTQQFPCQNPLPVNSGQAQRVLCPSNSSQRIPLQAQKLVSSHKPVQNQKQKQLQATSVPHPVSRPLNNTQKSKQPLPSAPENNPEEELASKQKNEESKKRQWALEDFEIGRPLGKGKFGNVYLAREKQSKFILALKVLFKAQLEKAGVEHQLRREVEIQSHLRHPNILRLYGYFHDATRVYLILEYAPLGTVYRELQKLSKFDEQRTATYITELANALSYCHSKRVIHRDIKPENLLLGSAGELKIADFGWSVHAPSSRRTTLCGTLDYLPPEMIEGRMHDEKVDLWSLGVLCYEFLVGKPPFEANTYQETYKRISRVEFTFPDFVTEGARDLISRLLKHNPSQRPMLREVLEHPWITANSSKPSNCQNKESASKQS

Work on `CCN(CC)Cc1ccc(OC)c(-c2cc3c(-c4ccc(C(=O)O)c(C(C)C)c4)ccnc3[nH]2)c1` [Compound 1, TCMDC-135051] yielded a remaining activity at 1 µM [1] of 85%, a remaining activity at 1 µM [2] of 100% and a remaining activity at 1 µM [3] of 101%. The remaining activity at 1 µM [4] was 82%, the remaining activity at 1 µM [5] was 6% and the remaining activity at 1 µM [6] was 100%. The remaining activity at 1 µM [7] was 73%, the remaining activity at 1 µM [8] was 99% and the half-life at 1 mM [9] was > 3 days. The remaining activity at 1 µM [10] was 30%, the remaining activity at 1 µM [11] was 92% and the microsomal CLint at 1 μM ([12]; read-out: HLM CLint (intrinsic clearance)) was < 7.5 µL/min/mg. For the same compound, the half-life at 1 μM ([12]; read-out: HLM t1/2) was > 184 min, the remaining activity at 1 µM [13] was 46% and the remaining activity at 1 µM [14] was 68%. It also gave a remaining activity at 1 µM [15] of 11%, an IC50 ([16]; [ATP] = 500 μM) of 87.1 nM and an IC50 ([16]; [ATP] = 3 mM) of 447 nM. For the same compound, the IC50 ([16]; [ATP] = Km (5 μM)) was 7.76 nM, the remaining activity at 1 µM [17] was 106% and the remaining activity at 1 µM [18] was 15%. For the same compound, the remaining activity at 1 µM [19] was 30%, the remaining activity at 1 µM [20] was 73% and the remaining activity at 1 µM [21] was 104%. It also gave a remaining activity at 1 µM [22] of 93%, a remaining activity at 1 µM [23] of 94% and a remaining activity at 1 µM [24] of 105%. For the same compound, the remaining activity at 1 µM [25] was 61%.
